Laboratory results taken from patent publication US20250171438A1 (Agios Pharmaceuticals, Inc., priority 2022, published 2025).

biological target: T1, human PAH with the R408W mutation (Homo sapiens, UniProt P00439, R408W); test: Cell Based Phenylalanine Flux Assay; conditions: A375 cells expressing human R408W PAH; 24 hrs compound incubation; 13C-Tyrosine by LC-MS; average where tested multiple times; read-out: AC50
T1 construct: expressed in transfected cells
T1 sequence (P00439 1-452 R408W): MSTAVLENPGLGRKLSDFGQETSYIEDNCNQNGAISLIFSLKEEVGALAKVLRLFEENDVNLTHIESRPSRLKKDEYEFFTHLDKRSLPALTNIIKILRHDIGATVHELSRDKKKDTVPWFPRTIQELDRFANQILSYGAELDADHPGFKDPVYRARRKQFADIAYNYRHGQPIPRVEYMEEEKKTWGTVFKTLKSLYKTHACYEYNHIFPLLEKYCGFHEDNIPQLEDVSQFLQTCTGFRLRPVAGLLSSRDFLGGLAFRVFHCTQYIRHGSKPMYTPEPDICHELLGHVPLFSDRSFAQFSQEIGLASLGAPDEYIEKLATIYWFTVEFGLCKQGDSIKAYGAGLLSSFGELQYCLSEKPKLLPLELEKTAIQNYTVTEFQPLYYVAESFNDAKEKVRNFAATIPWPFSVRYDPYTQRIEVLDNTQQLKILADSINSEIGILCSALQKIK

Row | AC50 [nM] | Structure (SMILES)
1 | < 500 | O=C(c1ocnc1C(F)(F)F)N1CCc2[nH]cnc2[C@H]1c1nc2c(F)cccc2s1 [Example 1493, (S)-(4-(4-fluorobenzo[d]thiazol-2-yl)-6,7-dihydro-1H-imidazo[4,5-c]pyridin-5(4H)-yl)(4-(trifluoromethyl)oxazol-5-yl)methanone]
2 | < 500 | O=C(c1ocnc1C(F)(F)F)N1CCc2[nH]cnc2[C@@H]1c1nc2c(F)cccc2s1 [Example 1494, (R)-(4-(4-fluorobenzo[d]thiazol-2-yl)-6,7-dihydro-1H-imidazo[4,5-c]pyridin-5(4H)-yl)(4-(trifluoromethyl)oxazol-5-yl)methanone]
3 | < 500 | O=C(c1ocnc1C1CC1)N1CCc2[nH]cnc2[C@H]1c1nc2c(F)cccc2s1 [Example 1495]
4 | 1000 to 5000 | O=C(c1ocnc1C1CC1)N1CCc2[nH]cnc2[C@@H]1c1nc2c(F)cccc2s1 [Example 1496, (R)-(4-cyclopropyloxazol-5-yl)(4-(4-fluorobenzo[d]thiazol-2-yl)-6,7-dihydro-1H-imidazo[4,5-c]pyridin-5(4H)-yl)methanone]
5 | < 500 | Cc1nc(C(C)(C)F)oc1C(=O)N1CCc2[nH]cnc2[C@H]1c1nc2ccccc2s1 [Example 1497]
6 | 1000 to 5000 | Cc1nc(C(C)(C)F)oc1C(=O)N1CCc2[nH]cnc2[C@@H]1c1nc2ccccc2s1 [Example 1498, (R)-(4-(benzo[d]thiazol-2-yl)-6,7-dihydro-1H-imidazo[4,5-c]pyridin-5(4H)-yl)(2-(2-fluoropropan-2-yl)-4-methyloxazol-5-yl)methanone]
7 | < 500 | Cc1nc(C(C)(C)F)oc1C(=O)N1CCc2[nH]cnc2[C@H]1c1nc2c(F)cccc2s1 [Example 1499, (S)-(4-(4-fluorobenzo[d]thiazol-2-yl)-6,7-dihydro-1H-imidazo[4,5-c]pyridin-5(4H)-yl)(2-(2-fluoropropan-2-yl)-4-methyloxazol-5-yl)methanone]
8 | 500 to 1000 | Cc1nc(C(C)(C)F)oc1C(=O)N1CCc2[nH]cnc2[C@@H]1c1nc2c(F)cccc2s1 [Example 1500, (R)-(4-(4-fluorobenzo[d]thiazol-2-yl)-6,7-dihydro-1H-imidazo[4,5-c]pyridin-5(4H)-yl)(2-(2-fluoropropan-2-yl)-4-methyloxazol-5-yl)methanone]
9 | < 500 | CC(C)(O)c1ccc2c(C(=O)N3CCc4[nH]cnc4[C@H]3c3nc4c(F)cccc4s3)cnn2c1 [Example 1501, (S)-(4-(4-fluorobenzo[d]thiazol-2-yl)-6,7-dihydro-1H-imidazo[4,5-c]pyridin-5(4H)-yl)(6-(2-hydroxypropan-2-yl)pyrazolo[1,5-a]pyridin-3-yl)methanone]
10 | 1000 to 5000 | CC(C)(O)c1ccc2c(C(=O)N3CCc4[nH]cnc4[C@@H]3c3nc4c(F)cccc4s3)cnn2c1 [Example 1502, (R)-(4-(4-fluorobenzo[d]thiazol-2-yl)-6,7-dihydro-1H-imidazo[4,5-c]pyridin-5(4H)-yl)(6-(2-hydroxypropan-2-yl)pyrazolo[1,5-a]pyridin-3-yl)methanone]
11 | < 500 | O=C(c1cnc(-c2c(F)cccc2F)s1)N1CCc2[nH]cnc2[C@@H]1c1nc2c(F)cccc2s1 [Example 1503, (R)-(2-(2,6-difluorophenyl)thiazol-5-yl)(4-(4-fluorobenzo[d]thiazol-2-yl)-6,7-dihydro-1H-imidazo[4,5-c]pyridin-5(4H)-yl)methanone]
12 | < 500 | O=C(c1cnc(-c2c(F)cccc2F)s1)N1CCc2[nH]cnc2[C@H]1c1nc2c(F)cccc2s1 [Example 1504]
13 | 1000 to 5000 | Cc1nc(-c2cnn(CC(F)(F)F)c2)oc1C(=O)N1CCc2[nH]cnc2[C@@H]1c1nc2c(F)cccc2s1 [Example 1505, (R)-(4-(4-fluorobenzo[d]thiazol-2-yl)-6,7-dihydro-1H-imidazo[4,5-c]pyridin-5(4H)-yl)(4-methyl-2-(1-(2,2,2-trifluoroethyl)-1H-pyrazol-4-yl)oxazol-5-yl)methanone]
14 | < 500 | Cc1nc(-c2cnn(CC(F)(F)F)c2)oc1C(=O)N1CCc2[nH]cnc2[C@H]1c1nc2c(F)cccc2s1 [Example 1506, (S)-(4-(4-fluorobenzo[d]thiazol-2-yl)-6,7-dihydro-1H-imidazo[4,5-c]pyridin-5(4H)-yl)(4-methyl-2-(1-(2,2,2-trifluoroethyl)-1H-pyrazol-4-yl)oxazol-5-yl)methanone]
15 | 1000 to 5000 | CC(C)(O)c1nnc(C(=O)N2CCc3[nH]cnc3[C@@H]2c2nc3ccccc3s2)o1 [Example 1507, (R)-(4-(benzo[d]thiazol-2-yl)-6,7-dihydro-1H-imidazo[4,5-c]pyridin-5(4H)-yl)(5-(2-hydroxypropan-2-yl)-1,3,4-oxadiazol-2-yl)methanone]
16 | 1000 to 5000 | CC(C)(O)c1nnc(C(=O)N2CCc3[nH]cnc3[C@H]2c2nc3ccccc3s2)o1 [Example 1508]
17 | < 500 | O=C(c1cnc(-c2c(F)cccc2F)s1)N1CCc2[nH]cnc2[C@H]1c1nc2ccccc2s1 [Example 1509]
18 | < 500 | O=C(c1cnc(-c2c(F)cccc2F)s1)N1CCc2[nH]cnc2[C@@H]1c1nc2ccccc2s1 [Example 1510, (R)-(4-(benzo[d]thiazol-2-yl)-6,7-dihydro-1H-imidazo[4,5-c]pyridin-5(4H)-yl)(2-(2,6-difluorophenyl)thiazol-5-yl)methanone]

Row | AC50 [nM] | Structure (SMILES)
19 | < 500 | CC(F)(F)c1ncc(C(=O)N2CCc3[nH]cnc3[C@H]2c2nc3ccccc3s2)s1 [Example 1511]
20 | 1000 to 5000 | CC(F)(F)c1ncc(C(=O)N2CCc3[nH]cnc3[C@@H]2c2nc3ccccc3s2)s1 [Example 1512, (R)-(4-(benzo[d]thiazol-2-yl)-6,7-dihydro-1H-imidazo[4,5-c]pyridin-5(4H)-yl)(2-(1,1-difluoroethyl)thiazol-5-yl)methanone]
21 | < 500 | CC(F)(F)c1ncc(C(=O)N2CCc3[nH]cnc3[C@H]2c2nc3c(F)cccc3s2)s1 [Example 1513]
22 | 1000 to 5000 | CC(F)(F)c1ncc(C(=O)N2CCc3[nH]cnc3[C@@H]2c2nc3c(F)cccc3s2)s1 [Example 1514, (R)-(2-(1,1-difluoroethyl)thiazol-5-yl)(4-(4-fluorobenzo[d]thiazol-2-yl)-6,7-dihydro-1H-imidazo[4,5-c]pyridin-5(4H)-yl)methanone]
23 | < 500 | O=C(c1oc(-c2ccccn2)nc1C1CC1)N1CCc2[nH]cnc2[C@H]1c1nc2ccccc2s1 [Example 1515]
24 | > 5000 | O=C(c1oc(-c2ccccn2)nc1C1CC1)N1CCc2[nH]cnc2[C@@H]1c1nc2ccccc2s1 [Example 1516, (R)-(4-(benzo[d]thiazol-2-yl)-6,7-dihydro-1H-imidazo[4,5-c]pyridin-5(4H)-yl)(4-cyclopropyl-2-(pyridin-2-yl)oxazol-5-yl)methanone]
25 | 1000 to 5000 | Cn1cc(-c2nc(C3CC3)c(C(=O)N3CCc4[nH]cnc4[C@@H]3c3nc4ccccc4s3)o2)cn1 [Example 1517, (R)-(4-(benzo[d]thiazol-2-yl)-6,7-dihydro-1H-imidazo[4,5-c]pyridin-5(4H)-yl)(4-cyclopropyl-2-(1-methyl-1H-pyrazol-4-yl)oxazol-5-yl)methanone]
26 | < 500 | Cn1cc(-c2nc(C3CC3)c(C(=O)N3CCc4[nH]cnc4[C@H]3c3nc4ccccc4s3)o2)cn1 [Example 1518]
27 | > 5000 | Cc1nc(-c2ccccc2)c(C(=O)N2CCc3[nH]cnc3[C@@H]2c2nc3ccccc3s2)o1 [Example 1519, (R)-(4-(benzo[d]thiazol-2-yl)-6,7-dihydro-1H-imidazo[4,5-c]pyridin-5(4H)-yl)(2-methyl-4-phenyloxazol-5-yl)methanone]
28 | 500 to 1000 | Cc1nc(-c2ccccc2)c(C(=O)N2CCc3[nH]cnc3[C@H]2c2nc3ccccc3s2)o1 [Example 1520]
29 | < 500 | O=C(c1cnc(C(F)F)s1)N1CCc2[nH]cnc2[C@H]1c1nc2ccccc2s1 [Example 1521]
30 | 1000 to 5000 | O=C(c1cnc(C(F)F)s1)N1CCc2[nH]cnc2[C@@H]1c1nc2ccccc2s1 [Example 1522, (R)-(4-(benzo[d]thiazol-2-yl)-6,7-dihydro-1H-imidazo[4,5-c]pyridin-5(4H)-yl)(2-(difluoromethyl)thiazol-5-yl)methanone]
31 | 500 to 1000 | O=C(c1ocnc1-c1ccccn1)N1CCc2[nH]cnc2[C@H]1c1nc2c(F)cccc2s1 [Example 1523, (S)-(4-(4-fluorobenzo[d]thiazol-2-yl)-6,7-dihydro-1H-imidazo[4,5-c]pyridin-5(4H)-yl)(4-(pyridin-2-yl)oxazol-5-yl)methanone]
32 | > 5000 | O=C(c1ocnc1-c1ccccn1)N1CCc2[nH]cnc2[C@@H]1c1nc2c(F)cccc2s1 [Example 1524, (R)-(4-(4-fluorobenzo[d]thiazol-2-yl)-6,7-dihydro-1H-imidazo[4,5-c]pyridin-5(4H)-yl)(4-(pyridin-2-yl)oxazol-5-yl)methanone]
33 | 500 to 1000 | Cn1nc(C(=O)N2CCc3[nH]cnc3[C@H]2c2nc3ccccc3s2)c2ccccc21 [Example 1525]
34 | 1000 to 5000 | Cn1nc(C(=O)N2CCc3[nH]cnc3[C@@H]2c2nc3ccccc3s2)c2ccccc21 [Example 1526, (R)-(4-(benzo[d]thiazol-2-yl)-6,7-dihydro-1H-imidazo[4,5-c]pyridin-5(4H)-yl)(1-methyl-1H-indazol-3-yl)methanone]
35 | < 500 | Cc1nc(C2CC2)oc1C(=O)N1CCc2[nH]cnc2[C@H]1c1nc2c(F)cccc2s1 [Example 1527]
36 | 1000 to 5000 | Cc1nc(C2CC2)oc1C(=O)N1CCc2[nH]cnc2[C@@H]1c1nc2c(F)cccc2s1 [Example 1528, (R)-(2-cyclopropyl-4-methyloxazol-5-yl)(4-(4-fluorobenzo[d]thiazol-2-yl)-6,7-dihydro-1H-imidazo[4,5-c]pyridin-5(4H)-yl)methanone]
